Experimental data from patent US9247740B2, “Isoxazoline derivatives as insecticidal compounds” (Syngenta Participations AG, priority 2011, dated 2016).

Tests used:
Type in all cases: in vivo
[1] = test system: Spodoptera littoralis (Egyptian Cotton Leafworm); assay: Spodoptera littoralis leaf disc spray test; settings: foliar, 72 h, 200 ppm spray on cotton leaf discs, mortality, feeding behavior, growth regulation 3 days after treatment
Description: This Example illustrates the insecticidal and acaricidal properties of compounds of formula (I). Tests were performed as follows:

[2] = test system: Heliothis virescens (Tobacco Budworm); assay: Heliothis virescens egg test on artificial diet; settings: 96 h, 200 ppm (concentration in well 18 ppm), eggs 0-24 h old on artificial diet, egg mortality, larval mortality, growth regulation after 4 days
From the text: (§1) This Example illustrates the insecticidal and acaricidal properties of compounds of formula (I).

[3] = test system: Plutella xylostella (Diamond Back Moth); assay: Plutella xylostella larval test on artificial diet; settings: 144 h, 200 ppm (concentration in well 18 ppm), L2 larvae, larval mortality and growth regulation after 6 days
From the text: as §1

[4] = test system: Diabrotica balteata (Corn Root Worm); assay: Diabrotica balteata larval test on artificial diet; settings: 120 h, 200 ppm (concentration in well 18 ppm), L2 larvae, larval mortality and growth regulation after 5 days
From the text: as §1

[5] = test system: Thrips tabaci (Onion Thrips); assay: Thrips tabaci leaf disc spray test; settings: foliar, 168 h, 200 ppm spray on sunflower leaf discs, mixed ages, mortality after 7 days
From the text: as §1

[6] = test system: Tetranychus urticae (Two-Spotted Spider Mite); assay: Tetranychus urticae leaf disc spray test; settings: foliar, 192 h, 200 ppm spray on bean leaf discs, mixed ages, egg, larval and adult mortality 8 days later
From the text: as §1

Measured: pest or weed control at 200 ppm

Cc1cc(C2=NO[C@@](c3cc(Cl)cc(Cl)c3)(C(F)(F)F)C2)ccc1C(=O)NCC1CS(=O)(=O)C1 [Compound C20, 4-[(5S)-5-(3,5-dichlorophenyl)-5-(trifluoromethyl)-4H-isoxazol-3-yl]-N-[(1,1-dioxothietan-3-yl)methyl]-2-methyl-benzamide]
≥ 80%: all assays above
